ChEMBL document CHEMBL1201862, “PubChem BioAssay data set” (2004)
Activity calls are given as the source filed them.

Key:
[1] = target: Ubiquitin carboxyl-terminal hydrolase BAP1 (Homo sapiens, UniProt Q92560); assay: BAP1 deubiquitinase inhibitors, dose response, biochemical (AID 714); assay type: functional
[2] = target: Glyceraldehyde-3-phosphate dehydrogenase (Homo sapiens, UniProt P04406)
Bcl-2-related protein A1 [3] = target: T1, Bcl-2-related protein A1 (Mus musculus, UniProt Q07440); assay: Bfl-1 inhibitors blocking BH3 peptide binding, confirmation, biochemical, TR-FRET, mouse Bfl-1 (AID 621);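 further: TR-FRET binding of GST-Bfl-1 to FITC-labelled Bid peptide via terbium antibody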
T1 sequence (Q07440 whole entry): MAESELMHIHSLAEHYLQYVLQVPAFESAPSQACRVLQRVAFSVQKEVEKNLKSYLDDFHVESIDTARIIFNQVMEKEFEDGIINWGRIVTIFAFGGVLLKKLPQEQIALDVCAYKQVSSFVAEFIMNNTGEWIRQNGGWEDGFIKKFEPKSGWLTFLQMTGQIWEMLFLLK

Bcl-2-related protein A1 [4] = target: T1, Bcl-2-related protein A1; assay: Bfl-1 binding inhibitors, SAR follow-up, biochemical, fluorescence polarization (AID 1070)
[5] = Luminescent dose response cell-based high throughput screening assay for inhibitors of the Janus kinase 2 mutant JAK2V617F. [Related pubchem assays: 1446 (Primary screen.), 1521 (Confirmation assay.), 1486 (Counter screen.)]; assay type: functional
[6] = CEM21 lymphoblast cell cytotoxicity, dose response, cytotoxicity control for viral fusion inhibitor project, CellTiter-Glo luminescence, cherry-picked (AID 652042); assay type: functional, cell-based;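 further: potency for signal decrease meaning cytotoxicity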
Estrogen receptor beta [7] = target: T2, Estrogen receptor beta (Homo sapiens, UniProt Q92731); assay: ERβ–SRC-3 coactivator interaction inhibitors, confirmation, orthogonal assay, biochemical, ELISA, streptavidin-HRP readout (AID 1060)
[8] = ZM109 Env clade C HIV-1 fusion inhibitors, dose response, HeLa effector, CEM target cells, luciferase, cherry-pick (AID 652058); assay type: functional, cell-based
[9] = inhibitors of HIV Env-driven cell fusion, dose response, cherry-pick (AID 652057); assay type: functional, cell-based
[10] = inhibitors of clade B AD8 Env fusion, dose response, cell-based, cherry-pick (AID 652062); assay type: functional;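 further: luciferase signal from cell-cell fusion driven by HIV-1 clade B AD8 Env; potency is for inhibitors of fusion seen as a drop in luminescence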
[11] = off-target signal loss in HeLa-CEM21 co-culture – HeLa F-luc CTL cells, cherry-picked, counter-screen for HIV-1 Env fusion inhibitor project, dose response (AID 652040); assay type: functional, cell-based;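 further: potency for signal decrease marking cytotoxic or nonspecific inhibition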
Estrogen receptor beta [12] = target: T2, Estrogen receptor beta
[13] = target: T3, Heat shock factor protein 1 (Mus musculus, UniProt P38532); assay: HSF1 potentiators in luciferase reporter cells, confirmation, cell-based, NIH3T3, luminescence, dose retest (AID 435004); assay type: functional;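 further: stress induced by proteasome inhibitor MG132 added 30 min after compound; luciferase reporter driven by HSF1 response element in NIH3T3 cells; actives raise luminescence as potentiators of the MG132 stress response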
T3 sequence (P38532 whole entry): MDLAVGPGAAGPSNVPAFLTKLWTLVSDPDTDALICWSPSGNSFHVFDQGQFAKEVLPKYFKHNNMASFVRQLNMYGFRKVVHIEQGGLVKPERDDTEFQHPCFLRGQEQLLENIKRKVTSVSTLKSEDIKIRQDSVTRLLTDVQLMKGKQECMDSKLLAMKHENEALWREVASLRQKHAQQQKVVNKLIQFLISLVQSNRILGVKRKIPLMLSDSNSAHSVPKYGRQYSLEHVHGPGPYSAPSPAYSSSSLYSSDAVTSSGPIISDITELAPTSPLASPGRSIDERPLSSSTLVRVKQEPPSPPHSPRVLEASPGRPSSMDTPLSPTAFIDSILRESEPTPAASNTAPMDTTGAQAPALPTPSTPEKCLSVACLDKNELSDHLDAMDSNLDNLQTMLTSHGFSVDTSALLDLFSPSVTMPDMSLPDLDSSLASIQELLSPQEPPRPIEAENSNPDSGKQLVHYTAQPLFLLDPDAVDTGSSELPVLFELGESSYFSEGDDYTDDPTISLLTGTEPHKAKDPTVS

[14] = target: Bifunctional protein GlmU (Mycobacterium tuberculosis, UniProt P9WMN3); assay: Inhibitors of Mycobacterial Glucosamine-1-phosphate acetyl transferase (GlmU). Secondary screen.; design: species or system Mycobacterium tuberculosis H37Rv
Bifunctional protein GlmU, sequence (P9WMN3 whole entry): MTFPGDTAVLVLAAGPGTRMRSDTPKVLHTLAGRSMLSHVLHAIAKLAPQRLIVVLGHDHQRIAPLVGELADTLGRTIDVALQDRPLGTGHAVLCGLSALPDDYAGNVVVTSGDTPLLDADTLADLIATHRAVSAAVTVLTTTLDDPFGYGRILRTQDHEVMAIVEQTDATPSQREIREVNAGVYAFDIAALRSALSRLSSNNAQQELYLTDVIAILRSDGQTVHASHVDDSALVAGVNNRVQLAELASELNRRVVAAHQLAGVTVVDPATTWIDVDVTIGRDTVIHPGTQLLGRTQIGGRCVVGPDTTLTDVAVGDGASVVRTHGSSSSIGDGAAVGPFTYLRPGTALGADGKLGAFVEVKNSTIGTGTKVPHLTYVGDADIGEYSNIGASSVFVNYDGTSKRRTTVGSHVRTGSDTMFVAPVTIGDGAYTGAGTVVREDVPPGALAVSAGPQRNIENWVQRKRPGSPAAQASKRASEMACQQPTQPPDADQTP

Glyceraldehyde-3-phosphate dehydrogenase, sequence (P04406 whole entry): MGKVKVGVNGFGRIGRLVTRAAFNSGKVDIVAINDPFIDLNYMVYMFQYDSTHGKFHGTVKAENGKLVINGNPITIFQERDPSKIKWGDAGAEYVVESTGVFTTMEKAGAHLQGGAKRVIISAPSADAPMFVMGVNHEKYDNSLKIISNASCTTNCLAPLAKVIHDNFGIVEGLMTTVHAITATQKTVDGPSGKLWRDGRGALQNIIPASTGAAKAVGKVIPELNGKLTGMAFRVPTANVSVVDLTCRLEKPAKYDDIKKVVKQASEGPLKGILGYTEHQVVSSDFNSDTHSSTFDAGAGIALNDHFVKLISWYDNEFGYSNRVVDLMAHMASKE
Ubiquitin carboxyl-terminal hydrolase BAP1, sequence (Q92560 whole entry): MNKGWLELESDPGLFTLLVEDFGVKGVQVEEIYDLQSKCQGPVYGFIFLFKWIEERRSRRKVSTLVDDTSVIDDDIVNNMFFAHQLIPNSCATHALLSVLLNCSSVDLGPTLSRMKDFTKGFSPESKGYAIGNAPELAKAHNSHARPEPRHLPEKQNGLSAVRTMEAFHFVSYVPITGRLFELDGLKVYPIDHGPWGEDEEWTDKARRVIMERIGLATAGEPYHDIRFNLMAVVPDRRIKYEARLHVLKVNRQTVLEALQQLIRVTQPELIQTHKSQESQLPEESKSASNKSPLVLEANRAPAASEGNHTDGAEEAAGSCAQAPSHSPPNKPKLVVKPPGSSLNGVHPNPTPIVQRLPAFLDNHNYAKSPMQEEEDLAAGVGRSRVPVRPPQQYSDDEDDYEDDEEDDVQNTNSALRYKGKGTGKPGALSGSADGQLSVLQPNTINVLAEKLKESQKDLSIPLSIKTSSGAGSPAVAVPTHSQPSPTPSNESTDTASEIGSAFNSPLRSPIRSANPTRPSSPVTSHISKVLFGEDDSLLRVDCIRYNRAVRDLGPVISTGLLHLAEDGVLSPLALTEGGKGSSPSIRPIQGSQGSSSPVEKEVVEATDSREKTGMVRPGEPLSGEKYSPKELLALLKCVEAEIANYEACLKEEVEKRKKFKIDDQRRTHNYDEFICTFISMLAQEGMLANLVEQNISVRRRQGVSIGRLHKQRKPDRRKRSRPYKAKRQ
T2 sequence (Q92731 whole entry, the tested form may be a part): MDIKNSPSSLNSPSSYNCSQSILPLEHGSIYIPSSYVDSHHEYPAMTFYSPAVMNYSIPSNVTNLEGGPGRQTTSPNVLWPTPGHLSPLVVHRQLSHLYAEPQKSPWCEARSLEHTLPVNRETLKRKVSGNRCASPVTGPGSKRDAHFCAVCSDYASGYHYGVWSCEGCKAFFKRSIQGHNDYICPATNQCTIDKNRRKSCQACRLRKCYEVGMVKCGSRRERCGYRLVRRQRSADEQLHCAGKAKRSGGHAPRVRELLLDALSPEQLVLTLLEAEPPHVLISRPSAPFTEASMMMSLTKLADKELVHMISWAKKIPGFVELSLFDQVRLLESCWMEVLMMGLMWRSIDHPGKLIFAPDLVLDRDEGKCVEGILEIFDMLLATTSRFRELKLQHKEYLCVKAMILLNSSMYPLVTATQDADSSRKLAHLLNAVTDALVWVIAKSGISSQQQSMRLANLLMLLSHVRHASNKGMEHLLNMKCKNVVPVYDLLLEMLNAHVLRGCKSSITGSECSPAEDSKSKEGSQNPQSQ

Question: For `O=C(NCc1ccccc1)c1cnc2ccc(S(=O)(=O)Nc3ccc4c(c3)OCCO4)cc2c1O`, which IC50 [1] is on record?
Answer: > 50 µM (not active)

Question: Which IC50 [2] does the source give for `O=C1C(Cl)=C(N2CCOCC2)C(=O)N1c1ccc(Cl)c(Cl)c1` here?
Answer: > 100 µM (not active)

Question: And the IC50 (Bcl-2-related protein A1 [3])?
Answer: 1.29 µM (active)

Question: What about the IC50 (Bcl-2-related protein A1 [4]) of the same compound?
Answer: 1.51 µM (active)

Question: For `CC1=CC(C)(C)Nc2cc(C)c(C)cc21`, which IC50 [1] is on record?
Answer: > 50 µM (not active)

Question: For `CC(C)(C)/C(O)=C/c1nc2cc(Cl)ccc2oc1=O`, which IC50 [5] is on record?
Answer: 1.7 µM (active)

Question: With `O=C(Oc1ccc2c(c1)OCO2)c1cc2c(s1)CCC2` as the compound, how does the AC50 [6] read?
Answer: 2.01 µM (active)

Question: What about the IC50 (Estrogen receptor beta [7]) of the same compound?
Answer: < 0.023 µM (not active)

Question: What about the AC50 [8] of the same compound?
Answer: 3.31 µM (active)

Question: What about the AC50 [9] of the same compound?
Answer: 10.4 µM (active)

Question: And the AC50 [10]?
Answer: 7.2 µM (active)

Question: What about the AC50 [11] of the same compound?
Answer: 10.8 µM (active)

Question: What about the IC50 (Estrogen receptor beta [12]) of the same compound?
Answer: < 1.56 µM (active)

Question: And the EC50 [13]?
Answer: > 260 µM (inactive)

Question: What does the source list for `COc1ccccc1N1CCN(C2=C(Cl)C(=O)N(c3ccc(Cl)c(Cl)c3)C2=O)CC1`?
Answer: IC50 [2]: > 100 µM (not active); IC50 (Bcl-2-related protein A1 [3]): 6.25 µM (active); IC50 (Bcl-2-related protein A1 [4]): 9.57 µM (active)

Question: With `O=C1CCCC(=O)C1=NNc1cccc(C(=O)O)c1` as the compound, how does the IC50 [14] read?
Answer: 120 µM (active)
